Measurements as given in ChEMBL document CHEMBL2034954, “Synthesis and antimycobacterial activity of novel 1,3-dimethylisocyanurate derivatives” (Eur J Med Chem, 2012).
≈ marks a conversion by molar mass, not a printed value. Calls of active or inactive are those of the source. No cut-off for these calls is given here.

Tests used:
[1] = system: Mycobacterium tuberculosis; assay: Bacteriostatic activity against Mycobacterium tuberculosis H37Rv at 1 ug/mL assessed as growth index after 4 days by radiometric growth assay (reference value: 210 growth index); assay type: functional
[2] = system: Mycobacterium tuberculosis; assay: Antitubercular activity against Mycobacterium tuberculosis H37Rv after […] by radiometric growth assay; assay type: functional
[3] = system: Mycobacterium tuberculosis; assay: Bacteriostatic activity against Mycobacterium tuberculosis H37Rv at 1 ug/mL assessed as growth index after 3 days by radiometric growth assay (reference value: 210 growth index); assay type: functional
[4] = system: Mycobacterium tuberculosis; assay: Bacteriostatic activity against Mycobacterium tuberculosis H37Rv at 5 ug/mL assessed as growth index after 5 days by radiometric growth assay (reference value: 210 growth index); assay type: functional
[5] = system: Mycobacterium tuberculosis; assay: Bacteriostatic activity against Mycobacterium tuberculosis H37Rv at 5 ug/mL assessed as growth index after 4 days by radiometric growth assay (reference value: 210 growth index); assay type: functional
[6] = system: Mycobacterium tuberculosis; assay: Bacteriostatic activity against Mycobacterium tuberculosis H37Rv at 5 ug/mL assessed as growth index after 3 days by radiometric growth assay (reference value: 210 growth index); assay type: functional
[7] = system: Mycobacterium tuberculosis; assay: Bacteriostatic activity against Mycobacterium tuberculosis H37Rv at 5 ug/mL assessed as growth index after 7 days by radiometric growth assay (reference value: 210 growth index); assay type: functional
[8] = system: Mycobacterium tuberculosis; assay: Bacteriostatic activity against Mycobacterium tuberculosis H37Rv at 1 ug/mL assessed as growth index after 5 days by radiometric growth assay (reference value: 210 growth index); assay type: functional
[9] = system: Mycobacterium tuberculosis; assay: Bacteriostatic activity against Mycobacterium tuberculosis H37Rv at 1 ug/mL assessed as growth index after 7 days by radiometric growth assay (reference value: 210 growth index); assay type: functional
[10] = system: Mycobacterium tuberculosis; assay: Antitubercular activity against Mycobacterium tuberculosis H37Rv at 80 ug/mL by radiometric growth assay; assay type: functional, organism-based
[11] = system: Mycobacterium tuberculosis; assay: Antitubercular activity against Mycobacterium tuberculosis H37Rv at 40 ug/mL by radiometric growth assay; assay type: functional, organism-based
Staphylococcus aureus = assay: Antibacterial activity against Staphylococcus aureus 209p up to 1 ug/mL after 5 days by broth dilution method; assay type: functional, organism-based
Mus musculus = assay: Acute toxicity in white outbred mouse assessed as mortality at 3000 mg/kg, po after 14 days; assay type: organism-based; set-up: dose 3000 mg/kg, route oral; settings: in vivo, 336 h
[12] = system: Mycobacterium tuberculosis; assay: Bacteriostatic activity against Mycobacterium tuberculosis H37Rv at 0.05 ug/mL assessed as growth index after 5 days by radiometric growth assay (reference value: 210 growth index); assay type: functional
[13] = system: Mycobacterium tuberculosis; assay: Bacteriostatic activity against Mycobacterium tuberculosis H37Rv at 0.1 ug/mL assessed as growth index after 10 days by radiometric growth assay (reference value: 210 growth index); assay type: functional
[14] = system: Mycobacterium tuberculosis; assay: Bacteriostatic activity against Mycobacterium tuberculosis H37Rv at 0.1 ug/mL assessed as growth index after 7 days by radiometric growth assay (reference value: 210 growth index); assay type: functional
[15] = system: Mycobacterium tuberculosis; assay: Bacteriostatic activity against Mycobacterium tuberculosis H37Rv at 0.1 ug/mL assessed as growth index after 5 days by radiometric growth assay (reference value: 210 growth index); assay type: functional
[16] = system: Mycobacterium tuberculosis; assay: Bacteriostatic activity against Mycobacterium tuberculosis H37Rv at 0.1 ug/mL assessed as growth index after 3 days by radiometric growth assay (reference value: 210 growth index); assay type: functional
Candida albicans = assay: Antifungal activity against Candida albicans 855-653 up to 1 ug/mL after 14 days by broth dilution method; assay type: functional, organism-based
Bacillus cereus = assay: Antibacterial activity against Bacillus cereus 8035 up to 1 ug/mL after 5 days by broth dilution method; assay type: functional, organism-based
Aspergillus niger = assay: Antifungal activity against Aspergillus niger BKMF-1119 up to 1 ug/mL after 14 days by broth dilution method; assay type: functional, organism-based
[17] = system: Mycobacterium tuberculosis; assay: Bacteriostatic activity against Mycobacterium tuberculosis H37Rv at 0.05 ug/mL assessed as growth index after 3 days by radiometric growth assay (reference value: 210 growth index); assay type: functional
Escherichia coli = assay: Antibacterial activity against Escherichia coli F-50 up to 1 ug/mL after 5 days by broth dilution method; assay type: functional, organism-based
[18] = system: Mycobacterium tuberculosis; assay: Bacteriostatic activity against Mycobacterium tuberculosis H37Rv at 0.1 ug/mL assessed as growth index after 4 days by radiometric growth assay (reference value: 210 growth index); assay type: functional
[19] = system: Trichophyton mentagrophytes; assay: Antifungal activity against Trichophyton mentagrophytes 1773 up to 1 ug/mL after 14 days by broth dilution method; assay type: functional, organism-based
[20] = system: Mycobacterium tuberculosis; assay: Antitubercular activity against Mycobacterium tuberculosis H37Rv at 1 ug/mL by radiometric growth assay; assay type: functional, organism-based
[21] = system: Mycobacterium tuberculosis; assay: Antitubercular activity against Mycobacterium tuberculosis H37Rv at 10 ug/mL by radiometric growth assay; assay type: functional, organism-based
Rattus norvegicus = assay: Acute toxicity in rat assessed as mortality at 3000 mg/kg, po after 14 days; assay type: organism-based; set-up: dose 3000 mg/kg, route oral; settings: in vivo, 336 h
[22] = system: Mycobacterium tuberculosis; assay: Bacteriostatic activity against Mycobacterium tuberculosis H37Rv at 0.05 ug/mL assessed as growth index after 4 days by radiometric growth assay (reference value: 210 growth index); assay type: functional
[23] = system: Mycobacterium tuberculosis; assay: Bacteriostatic activity against Mycobacterium tuberculosis H37Rv at 0.05 ug/mL assessed as growth index after 7 days by radiometric growth assay (reference value: 210 growth index); assay type: functional
[24] = system: Mycobacterium tuberculosis; assay: Bacteriostatic activity against Mycobacterium tuberculosis H37Rv at 25 ug/mL assessed as growth index after 3 days by radiometric growth assay (reference value: 210 growth index); assay type: functional
[25] = system: Mycobacterium tuberculosis; assay: Bacteriostatic activity against Mycobacterium tuberculosis H37Rv at 0.5 ug/mL assessed as growth index after 5 days by radiometric growth assay (reference value: 210 growth index); assay type: functional
[26] = system: Mycobacterium tuberculosis; assay: Bacteriostatic activity against Mycobacterium tuberculosis H37Rv at 0.5 ug/mL assessed as growth index after 4 days by radiometric growth assay (reference value: 210 growth index); assay type: functional
[27] = system: Mycobacterium tuberculosis; assay: Bacteriostatic activity against Mycobacterium tuberculosis H37Rv at 0.5 ug/mL assessed as growth index after 3 days by radiometric growth assay (reference value: 210 growth index); assay type: functional
[28] = system: Mycobacterium tuberculosis; assay: Bacteriostatic activity against Mycobacterium tuberculosis H37Rv at 1 ug/mL assessed as growth index after 10 days by radiometric growth assay (reference value: 210 growth index); assay type: functional
[29] = system: Mycobacterium tuberculosis; assay: Bacteriostatic activity against Mycobacterium tuberculosis H37Rv at 0.5 ug/mL assessed as growth index after 7 days by radiometric growth assay (reference value: 210 growth index); assay type: functional
[30] = system: Mycobacterium tuberculosis; assay: Bacteriostatic activity against Mycobacterium tuberculosis H37Rv at 0.5 ug/mL assessed as growth index after 10 days by radiometric growth assay (reference value: 210 growth index); assay type: functional
[31] = system: Mycobacterium tuberculosis; assay: Bacteriostatic activity against Mycobacterium tuberculosis H37Rv at 5 ug/mL assessed as growth index after 10 days by radiometric growth assay (reference value: 210 growth index); assay type: functional

| SMILES | Growth_index [1] | MIC [2] | Growth_index [3] | Growth_index [8] | Growth_index [9] | Growth_index [14] | Growth_index [15] | Growth_index [16] | Growth_index [18] | Growth_index [25] | Growth_index [26] | Growth_index [27] | Growth_index [29] | Growth_index [30] | further results |
| --- | --- | --- | --- | --- | --- | --- | --- | --- | --- | --- | --- | --- | --- | --- | --- |
| Cn1c(=O)n(C)c(=O)n(C[S+]([O-])CC(=O)NN)c1=O (stereo not given) | 48 | 1 µg/mL (≈ 3.43 µM) | 15 | 78 | >90 | – | – | – | – | – | – | – | – | – | Growth_index [4]: 67; Growth_index [5]: 17; Growth_index [6]: 10; Growth_index [7]: >90 |
| CO[C@H]1/C=C/O[C@@]2(C)Oc3c(C)c(O)c4c(O)c(c(/C=N/N5CCN(C)CC5)c(O)c4c3C2=O)NC(=O)/C(C)=C\C=C\[C@H](C)[C@H](O)[C@@H](C)[C@@H](O)[C@@H](C)[C@H](OC(C)=O)[C@@H]1C | – | – | – | – | – | – | – | – | – | – | – | – | – | – | Activity [10]: Active; Activity [11]: Active |
| Cn1c(=O)n(C)c(=O)n(CCCCC[S+]([O-])CC(=O)NN)c1=O (stereo not given) | – | 0.05 µg/mL (≈ 0.144 µM) | – | – | – | 2 | 1 | 0 | 0 | – | – | – | – | – | Activity (Staphylococcus aureus): inactive; Activity (Mus musculus): Non-toxic; Growth_index [12]: 32; Growth_index [13]: 2; Activity (Candida albicans): inactive; Activity (Bacillus cereus): inactive; Activity (Aspergillus niger): inactive; Growth_index [17]: 15; Activity (Escherichia coli): inactive; Activity [19]: inactive; Activity [20]: Active; Activity [21]: Active; Activity (Rattus norvegicus): Non-toxic; Growth_index [22]: 27; Growth_index [23]: >90 |
| Cn1c(=O)n(C)c(=O)n(CCS(=O)(=O)CC(N)=O)c1=O | – | 25 µg/mL (≈ 81.6 µM) | – | – | – | – | – | – | – | – | – | – | – | – | Growth_index [24]: >90 |
| Cn1c(=O)n(C)c(=O)n(CS(=O)(=O)CC(=O)NN)c1=O | 20 | 0.1 µg/mL (≈ 0.325 µM) | 20 | – | 20 | 47 | 47 | 35 | 43 | 52 | 41 | 25 | 52 | 52 | Growth_index [13]: 47; Growth_index [28]: 20 |
| Cn1c(=O)n(C)c(=O)n(CCCCC[S+]([O-])CC(N)=O)c1=O (stereo not given) | 30 | 0.1 µg/mL (≈ 0.301 µM) | 12 | 30 | >90 | >90 | 30 | 23 | 27 | 38 | 37 | 26 | 50 | 60 | – |
| Cn1c(=O)n(C)c(=O)n(C[S+]([O-])CC(N)=O)c1=O (stereo not given) | – | 0.1 µg/mL (≈ 0.362 µM) | – | – | – | >90 | 36 | 30 | 30 | 50 | 50 | 32 | 50 | 50 | – |
| Cn1c(=O)n(C)c(=O)n(CCS(=O)(=O)CC(=O)NN)c1=O | 24 | 0.5 µg/mL (≈ 1.56 µM) | 18 | 33 | 33 | – | – | – | – | 40 | 40 | 25 | 40 | 53 | Growth_index [28]: 33 |
| CC1COc2c(N3CCN(C)CC3)c(F)cc3c(=O)c(C(=O)O)cn1c23 (stereo not given) | – | – | – | – | – | – | – | – | – | – | – | – | – | – | Activity [21]: Active |
| Cn1c(=O)n(C)c(=O)n(CCCCCC[S+]([O-])CC(N)=O)c1=O (stereo not given) | 45 | 1 µg/mL (≈ 2.89 µM) | 25 | 47 | 54 | – | – | – | – | – | – | – | – | – | Growth_index [31]: 66; Growth_index [4]: 42; Growth_index [5]: 31; Growth_index [6]: 15; Growth_index [7]: 66; Growth_index [28]: >90 |
| Cn1c(=O)n(C)c(=O)n(CC[S+]([O-])CC(N)=O)c1=O (stereo not given) | – | 10 µg/mL (≈ 34.4 µM) | – | – | – | – | – | – | – | – | – | – | – | – | Growth_index [24]: >90 |
| NNC(=O)c1ccncc1 [ISONIAZID] | – | 0.1 µg/mL (≈ 0.729 µM) | – | – | – | – | – | – | – | – | – | – | – | – | Activity [20]: Active; Activity [21]: Active |
